Our source for the IC50 values is patent US20240376119A1, “SPIRO COMPOUND AND USE THEREOF” (CSPC Zhongqi Pharmaceutical Technology (Shijiazhuang) Co., …, priority 2021, published 2024).

Test [1] deals with human lung adenocarcinoma NCI-H441 cells. Briefly: In vitro inhibitory effect on the proliferation of NCI-H441 cells (3D CellTiter Glo, 5 days). Format: cell-based. The settings on record: 120 h, 3D cell viability. As to the method:
The human lung adenocarcinoma cell NCI-H441 used in the assay was purchased from ATCC. The complete culture medium required for cell culture was RPMI 1640 Medium (GIBCO Company), which was supplemented with 10% fetal bovine serum (GIBCO Company). Cells were cultured in a 37° C., 5% CO2 incubator. The reagents used in the assay included dimethyl sulfoxide (purchased from Sigma), a 3D Cell Viability assay kit (purchased from Promega), and the control substance TW-45 used in the assay was obtained homemade. The test substance was sealed and stored at 4° C.
Dimethyl sulfoxide was used as the solvent to fully dissolve the test substance and prepare a stock solution with a concentration of 1×10^−2 mol/L. The stock solution was stored at −20° C. A complete culture medium was used as the diluent, and the test substance was diluted to different concentrations in gradient for later use (the final test concentration was 10000, 3333, 1111, 370, 123, 41, 13.7, 4.5, 1.5, and 0.5 nM). Cells were cultured in a 37° C., 5% CO2 incubator for 5 days. Detection was made on the fifth day. 30 μL of reagent (Celltiter Glo Assay Kit-3D) was added to each well and the plate was shaken on a plate oscillator (protected from light) for 30 minutes. The plate was incubated at room temperature (protected from light) for 120 minutes. Chemiluminescence values were recorded with a Multiplate reader. […]
A general note: ATP-based viability assays read luminescence as a measure of living cells.

Test [2] addresses SHP2 (Homo sapiens (Human), UniProt Q06124). The experiment in a line: Assay for the inhibitory effect on the SHP2 enzyme (DiFMUP substrate, fluorescence). Format: biochemical. The settings on record: SHP2 activated with SHP-2 activated peptide; DiFMUP 10 μM; read-out: Enzymatic Effect (IC50 on SHP2). The protocol: 1× Assay buffer was prepared. A compound to be tested was diluted with DMSO solvent to a stock concentration of 10 mM. The compound to be tested was first diluted to an intermediate concentration of 1000 μM and then further diluted in a 3-fold gradient using DMSO. Therefore, the intermediate gradient dilution concentration of the compound to be tested was: 1000 μM, 3-fold dilution, 11 gradients. 100 nL of each concentration of the compound in the 384-well LDV echo plate was transferred to a new 384-well ELISA plate (assay plate) (corning, Cat #4514) by the Echo550 instrument. The final concentration of the compound to be tested was 10 μM, 3-fold dilution, 11 gradients in duplicate after 10 μL of the reaction reagent was added. The final DMSO concentration was 1%. For both negative and positive control wells, 100 nL DMSO would be transferred.
A mixed liquor of 2× working SHP2 reagent (0.4 nM) and 0.5 μM SHP-2 activated peptide (BPS bioscience #79319-2) was prepared with 1× enzyme buffer. After the above-mixed liquor was incubated at 25° C. for 60 minutes, 5 μL of activated SHP2 kinase solution was transferred with a pipettor to the compound wells and the Max control wells (Corning, #4514) of the plate. Then 5 μL of 1× kinase buffer was transferred to the Min control wells. The plate was centrifuged at 1000 rpm for 30 seconds, sealed, and incubated in a 25° C. constant-temperature incubator for 30 minutes. A substrate solution of DiFMUP (#D6567, Invitrogen™) was prepared with 1× kinase buffer, and its concentration should be 2 times as the final concentration of the assay (DiFMUP final concentration: 10 μM). 5 μL of the prepared substrate solution was transferred with an electric pipettor into each well of the ELISA plate to start the reaction. The plate was centrifuged at 1000 rpm for 30 seconds, sealed, and incubated in a 25° C. constant-temperature incubator for 60 minutes. Read the plate at the excitation/emission wavelength of 358/455 nm after the ELISA plate was placed on the Spark machine.
The RLU values were collected from Spark and the inhibition rate was calculated with the RLU values. Inhibition rate=(maximum value-sample RLU)/(maximum value-minimum value)*100. “Minimum value” was referred to the RLU of the enzyme-free control, and “maximum value” was referred to the RLU of the DMSO control. The data were fit by using the XLFit Excel module (version 5.4.0.8) to obtain IC50 values, and the results are shown in Table 1.

Some results are limits rather than exact numbers.

Sequence of SHP2 (Q06124 whole entry): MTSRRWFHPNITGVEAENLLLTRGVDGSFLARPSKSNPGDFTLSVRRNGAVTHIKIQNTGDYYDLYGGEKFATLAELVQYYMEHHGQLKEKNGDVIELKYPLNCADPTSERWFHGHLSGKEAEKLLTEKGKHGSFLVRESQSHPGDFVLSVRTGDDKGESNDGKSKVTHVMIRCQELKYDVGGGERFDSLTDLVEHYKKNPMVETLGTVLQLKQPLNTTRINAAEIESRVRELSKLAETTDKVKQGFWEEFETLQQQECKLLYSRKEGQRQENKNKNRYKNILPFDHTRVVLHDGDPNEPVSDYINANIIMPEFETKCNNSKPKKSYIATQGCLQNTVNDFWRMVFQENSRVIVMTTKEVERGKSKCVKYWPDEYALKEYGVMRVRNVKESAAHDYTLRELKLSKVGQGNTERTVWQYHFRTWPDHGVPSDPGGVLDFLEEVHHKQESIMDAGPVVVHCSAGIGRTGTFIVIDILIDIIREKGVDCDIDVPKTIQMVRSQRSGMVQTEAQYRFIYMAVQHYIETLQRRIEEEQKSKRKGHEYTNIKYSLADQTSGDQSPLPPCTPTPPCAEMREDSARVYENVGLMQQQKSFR

Consider `CC(=O)c1nc(Sc2ccnc(N)c2Cl)c(N)nc1N1CCC2(CC1)Oc1ccccc1[C@H]2N` [Compound 62], for which the IC50 (usually the midpoint of a concentration-inhibition curve) in test [1] was 20 to 50 nM; in test [2], ≤ 20 nM.
